One may read the IC50 as the point on the concentration scale where inhibition reaches its midpoint.

This experiment addresses T1, human poly-histidine tagged KSP motor domain (KSP(367H)) (Homo sapiens, UniProt P52732).
T1 construct: were used to amplify the motor domain and the neck linker region; made in house; host or cells: E. coli BL21 (DE3), vector pRSETa
T1 sequence (P52732 18-359 limits assumed): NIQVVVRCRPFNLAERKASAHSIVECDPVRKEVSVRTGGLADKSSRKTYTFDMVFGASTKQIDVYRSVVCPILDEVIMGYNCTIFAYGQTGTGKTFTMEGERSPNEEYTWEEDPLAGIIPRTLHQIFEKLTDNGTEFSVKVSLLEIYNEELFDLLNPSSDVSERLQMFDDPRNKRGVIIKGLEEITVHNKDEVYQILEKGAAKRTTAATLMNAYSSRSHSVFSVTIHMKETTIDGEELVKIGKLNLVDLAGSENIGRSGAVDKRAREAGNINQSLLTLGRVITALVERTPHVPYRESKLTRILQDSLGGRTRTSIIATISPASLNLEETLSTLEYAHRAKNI
Put plainly: Kinesin ATPase In Vitro Assay. Format: biochemical. As to the method:
I. Kinesin ATPase In Vitro Assay
The N-terminal primer 5′-[…] (SEQ. ID. NO.: 1) and the C-terminal primer 5′-[…] […] (SEQ. ID. NO.: 2)
were used to amplify the motor domain and the neck linker region. The PCR products were digested with AseI and XhoI, ligated into the NdeI/XhoI digestion product of pRSETa (Invitrogen) and transformed into E. coli BL21 (DE3).
Cells were grown at 37° C. to an OD600 of 0.5. After cooling the culture to room temperature expression of KSP was induced with 100 μM IPTG and incubation was continued overnight. Cells were pelleted by centrifugation and washed once with ice-cold PBS. Pellets were flash-frozen and stored −80° C.
Protein Purification: Cell pellets were thawed on ice and resuspended in lysis buffer (50 mM K-HEPES, pH 8.0, 250 mM KCl, 0.1% Tween, 10 mM imidazole, 0.5 mM Mg-ATP, 1 mM PMSF, 2 mM benzimidine, 1× complete protease inhibitor cocktail (Roche)). Cell suspensions were incubated with 1 mg/ml lysozyme and 5 mM β-mercaptoethanol on ice for 10 minutes, followed by sonication (3×30 sec). All subsequent procedures were performed at 4° C. Lysates were centrifuged at 40,000×g for 40 minutes. Supernatants were diluted and loaded onto an SP Sepharose column (Pharmacia, 5 ml cartridge) in buffer A (50 mM K-HEPES, pH 6.8, 1 mM MgCl2, 1 mM EGTA, 10 μM Mg-ATP, 1 mM DTT) and eluted with a 0 to 750 mM KCl gradient in buffer A. Fractions containing KSP were pooled and incubated with Ni-NTA resin (Qiagen) for one hour. The resin was washed three times with buffer B (Lysis buffer minus PMSF and protease inhibitor cocktail), followed by three 15-minute incubations and washes with buffer B. Finally, the resin was incubated and washed for 15 minutes three times with buffer C (same as buffer B except for pH 6.0) and poured into a column. KSP was eluted with elution buffer (identical to buffer B except for 150 mM KCl and 250 mM imidazole). KSP-containing fractions were pooled, made 10% in sucrose, and stored at −80° C.
Microtubules are prepared from tubulin isolated from bovine brain. Purified tubulin (>97% MAP-free) at 1 mg/ml is polymerized at 37° C. in the presence of 10 μM paclitaxel, 1 mM DTT, 1 mM GTP in BRB80 buffer (80 mM K-PIPES, 1 mM EGTA, 1 mM MgCl2 at pH 6.8). The resulting microtubules are separated from non-polymerized tubulin by ultracentrifugation and removal of the supernatant. The pellet, containing the microtubules, is gently resuspended in 10 μM paclitaxel, 1 mM DTT, 50 μg/ml ampicillin, and 5 μg/ml chloramphenicol in BRB80.
The kinesin motor domain is incubated with microtubules, 1 mM ATP (1:1 MgCl2: Na-ATP), and compound at 23° C. in buffer containing 80 mM K-HEPES (pH 7.0), […], 1 mM DTT, 1 mM MgCl2, and 50 mM KCl. The reaction is terminated by a 2-10 fold dilution with a final buffer composition of 80 mM HEPES and 50 mM EDTA. […] The reaction is incubated for 10 minutes at 23° C., and the absorbance of the phospho-molybdate complex is measured at 540 nm.

The mark [1] stands for this setting: (3R,4R) enantiomeric form tested, kinesin motor domain with microtubules, 1 mM ATP, 23° C., free phosphate by quinaldine red/ammonium molybdate, read-out: IC50.

Read-outs that look alike come from different tables or passages of the source. Bounds are passed on as bounds.

For the molecule `CC(=O)C1=NN2c3cc(F)ccc3OCC2[C@@]1(CCCN1CC2C[C@@H]1CO2)c1ccccc1` (mixture of isomers) [Compound 4-15, (3R,4R) 1-{8-fluoro-3-[3-(2-oxa-5-azabicyclo[2.2.1]hept-5-yl)propyl]-3-phenyl-3a,4-dihydro-3H-pyrazolo[5,1-c][1,4]benzoxazin-2-yl}ethanone], the half-inhibitory concentration (IC50) under setting [1] was at most 30 µM.

With `CC(=O)C1=NN2c3cc(C)ccc3OCC2[C@@]1(CCCN1CC2C[C@@H]1CO2)c1ccccc1` (mixture of isomers) [Compound 4-20, (3R,4R) 1-{8-methyl-3-[3-(2-oxa-5-azabicyclo[2.2.1]hept-5-yl)propyl]-3-phenyl-3a,4-dihydro-3H-pyrazolo[5,1-c][1,4]benzoxazin-2-yl}ethanone], under setting [1], the IC50 is at most 30 µM.

Take `CON(C)C(=O)C1=NN2c3cc(F)ccc3OC[C@H]2[C@H]1c1ccccc1` [Compound 1-7, (3R,4R)-8-Fluoro-N-methoxy-N-methyl-3-phenyl-3a,4-dihydro-3H-pyrazolo[5,1-c][1,4]benzoxazine-2-carboxamide]: the IC50 under setting [1] was at most 30 µM.

Molecule `CC(=O)C1=NN2c3cc(F)ccc3OC[C@H]2[C@H]1c1ccccc1` [Compound 1-8a, (3R,4R)-1-(8-Fluoro-3-phenyl-3a,4-dihydro-3H-pyrazolo[5,1-c][1,4]benzoxazin-2-yl)ethanone] had an IC50 of at most 30 µM.

As to `CON(C)C(=O)C1=NN2c3cc(F)ccc3OC[C@H]2[C@@]1(CCCO)c1ccccc1` [Compound 4-11, (3R,4R) 8-fluoro-3-(3-hydroxypropyl)-N-methoxy-N-methyl-3-phenyl-3a,4-dihydro-3H-pyrazolo[5,1-c][1,4]benzoxazine-2-carboxamide], the IC50 under setting [1] is at most 30 µM.

In turn, `CC(=O)C1=NN2c3cc(F)ccc3OC[C@H]2[C@@]1(CCCO)c1ccccc1` [Compound 4-12, (3R,4R) 1-[8-fluoro-3-(3-hydroxypropyl)-3-phenyl-3a,4-dihydro-3H-pyrazolo[5,1-c][1,4]benzoxazin-2-yl]ethanone] returned a 50% inhibitory concentration (IC50) of at most 30 µM.

`CC(=O)C1=NN2c3cc(F)ccc3OCC2C1(CCCN(C)C)c1ccccc1` [Compound 4-13, (3R,4R) 1-{3-[3-(dimethylamino)propyl]-8-fluoro-3-phenyl-3a,4-dihydro-3H-pyrazolo[5,1-c][1,4]benzoxazin-2-yl}ethanone] yielded an IC50 of at most 30 µM.

As to `CC(=O)C1=NN2c3cc(F)ccc3OCC2C1(CCCN1CCOCC1)c1ccccc1` [Compound 4-14, (3R,4R) 1-[8-fluoro-3-(3-morpholin-4-ylpropyl)-3-phenyl-3a,4-dihydro-3H-pyrazolo[5,1-c][1,4]benzoxazin-2-yl]ethanone], the IC50 is at most 30 µM.

Regarding `CC(=O)C1=NN2c3cc(C)ccc3OCC2C1(CCCN(C)C)c1ccccc1` [Compound 4-18, (3R,4R) 1-{3-[3-(dimethylamino)propyl]-8-methyl-3-phenyl-3a,4-dihydro-3H-pyrazolo[5,1-c][1,4]benzoxazin-2-yl}ethanone], the IC50 was at most 30 µM.

Regarding `CC(=O)C1=NN2c3cc(C)ccc3OCC2C1(CCCN1CCOCC1)c1ccccc1` [Compound 4-19, (3R,4R) 1-[8-methyl-3-(3-morpholin-4-ylpropyl)-3-phenyl-3a,4-dihydro-3H-pyrazolo[5,1-c][1,4]benzoxazin-2-yl]ethanone], the half-inhibitory concentration (IC50) is at most 30 µM.

With `CC(=O)C1=NN2c3cc(F)ccc3OCC2C1(CCCN1CCNC(=O)CC1)c1ccccc1` [Compound 4-21, 1-{3-[(3R,4R)-2-acetyl-8-fluoro-3-phenyl-3a,4-dihydro-3H-pyrazolo[5,1-c][1,4]benzoxazin-3-yl]propyl}-1,4-diazepan-5-one], the IC50 was at most 30 µM.

`CC(=O)C1=NN2c3cc(F)ccc3OCC2C1(CCCN1CCNCC1)c1ccccc1` [Compound 4-23, (3R,4R) 1-[8-fluoro-3-phenyl-3-(3-piperazin-1-ylpropyl)-3a,4-dihydro-3H-pyrazolo[5,1-c][1,4]benzoxazin-2-yl]ethanone]: the IC50 is at most 30 µM.

Take `CC(=O)C1=NN2c3cc(F)ccc3OC[C@H]2[C@@]1(CCCN1CCN(C(=O)OC(C)(C)C)CC1)c1ccccc1` [Compound 4-24, tert-butyl 4-{3-[(3R,4R)-2-acetyl-8-fluoro-3-phenyl-3a,4-dihydro-3H-pyrazolo[5,1-c][1,4]benzoxazin-3-yl]propyl}piperazine-1-carboxylate]: the concentration for half-maximal inhibition (IC50) under setting [1] is at most 30 µM.

For `CC(=O)C1=NN2c3cc(F)ccc3OC[C@H]2[C@@]1(CCCN1CCN(C(=O)CO)CC1)c1ccccc1` [Compound 4-25, 1-{(3R,4R)-8-fluoro-3-[3-(4-glycoloylpiperazin-1-yl)propyl]-3-phenyl-3a,4-dihydro-3H-pyrazolo[5,1-c][1,4]benzoxazin-2-yl}ethanone], the 50% inhibitory concentration (IC50) under setting [1] is at most 30 µM.

With `COCC(=O)N1CCN(CCC[C@]2(c3ccccc3)C(C(C)=O)=NN3c4cc(F)ccc4OC[C@H]32)CC1` [Compound 4-26, 1-((3R,4R)-8-fluoro-3-{3-[4-(methoxyacetyl)piperazin-1-yl]propyl}-3-phenyl-3a,4-dihydro-3H-pyrazolo[5,1-c][1,4]benzoxazin-2-yl)ethanone], the half-maximal inhibitory concentration (IC50) under setting [1] was at most 30 µM.

Consider `CC(=O)C1=NN2c3cc(F)ccc3OC[C@H]2[C@@]1(CCCN1CCN(C(N)=O)CC1)c1ccccc1` [Compound 4-27, 4-{3-[(3R,4R)-2-acetyl-8-fluoro-3-phenyl-3a,4-dihydro-3H-pyrazolo[5,1-c][1,4]benzoxazin-3-yl]propyl}piperazine-1-carboxamide], for which, under setting [1], the IC50 is at most 30 µM.

Turning to `CNC(=O)N1CCN(CCC[C@]2(c3ccccc3)C(C(C)=O)=NN3c4cc(F)ccc4OC[C@H]32)CC1` [Compound 4-28, 4-{3-[(3R,4R)-2-acetyl-8-fluoro-3-phenyl-3a,4-dihydro-3H-pyrazolo[5,1-c][1,4]benzoxazin-3-yl]propyl}-N-methylpiperazine-1-carboxamide], the half-inhibitory concentration (IC50) under setting [1] is at most 30 µM.

`CC(=O)C1=NN2c3cc(F)ccc3OC[C@H]2[C@@]1(CCCN1CCN(C(=O)N(C)C)CC1)c1ccccc1` [Compound 4-29, 4-{3-[(3R,4R)-2-acetyl-8-fluoro-3-phenyl-3a,4-dihydro-3H-pyrazolo[5,1-c][1,4]benzoxazin-3-yl]propyl}-N,N-dimethylpiperazine-1-carboxamide]: the 50% inhibitory concentration (IC50) under setting [1] is at most 30 µM.

Turning to `CC(=O)C1=NN2c3cc(F)ccc3OC[C@H]2[C@@]1(CCCN1CCN(C(=O)C(C)(C)C)CC1)c1ccccc1` [Compound 4-30, 1-((3R,4R)-3-{3-[4-(2,2-dimethylpropanoyl)piperazin-1-yl]propyl}-8-fluoro-3-phenyl-3a,4-dihydro-3H-pyrazolo[5,1-c][1,4]benzoxazin-2-yl)ethanone], under setting [1], the IC50 was at most 30 µM.

Consider `COC(=O)C(=O)N1CCN(CCC[C@]2(c3ccccc3)C(C(C)=O)=NN3c4cc(F)ccc4OC[C@H]32)CC1` [Compound 4-31, methyl (4-{3-[(3R,4R)-2-acetyl-8-fluoro-3-phenyl-3a,4-dihydro-3H-pyrazolo[5,1-c][1,4]benzoxazin-3-yl]propyl}piperazin-1-yl)(oxo)acetate], for which the half-maximal inhibitory concentration (IC50) under setting [1] was at most 30 µM.

On to `COC(=O)CC(=O)N1CCN(CCC[C@]2(c3ccccc3)C(C(C)=O)=NN3c4cc(F)ccc4OC[C@H]32)CC1` [Compound 4-32, methyl 3-(4-{3-[(3R,4R)-2-acetyl-8-fluoro-3-phenyl-3a,4-dihydro-3H-pyrazolo[5,1-c][1,4]benzoxazin-3-yl]propyl}piperazin-1-yl)-3-oxopropanoate], for which, under setting [1], the IC50 was at most 30 µM.

Source of the values: US7632833B2, “Mitotic kinesin inhibitors” (Merck & Co., Inc., priority 2004, dated 2009).
